In PMC11763059, “GENI as an AMPK Activator Binds α and γ Subunits and Improves the Memory Dysfunction of Alzheimer’s Disease Mouse Models via Autophagy and Neuroprotection” (Antioxidants, 2025):

Experiments:
[1] = test system: PC12 cells; assay: ROS assay (DCFH-DA) in PC12 cells; assay type: cell-based; conditions: GENI 1, 3 and 10 μM 24 h, 0.8 mM H2O2 1 h
Description: To determine ROS levels in PC12 cells, we seeded 5 × 10^4 PC12 cells in each well of a 24-well plate. Cells were treated with RES (10 μM) or GENI (1, 3, and 10 μM) for 24 h, followed by 0.8 mM H2O2 for 1 h. DCFH-DA (2,7-dichlorodihydrofluorescein diacetate, final concentration, 10 μM) was then added to each well and incubated for 30 min. Cells were washed with PBS to remove extracellular DCFH-DA, and intercellular ROS was detected by using a SpectraMax M3 multimode microplate reader (Molecular Devices Corporation, San Jose, CA, USA) at an excitation wavelength of 488 nm and an emission wavelength of 525 nm. Meanwhile, DCF in PC12 cells was observed using a fluorescence microscope (HCS, Thermo Fisher, Science, Waltham, MA, USA). To detect malondialdehyde (MDA) content and total SOD enzymatic activities in PC12 cells, we seeded 2 × 10^6 PC12 cells in 60 mm dishes containing 5 mL of DMEM and cultured the cells for 24 h. PC12 cells were treated with RES (10 μM) or GENI (3 or 10 μM) for 24 h and then treated with 0.8 mM H2O2 for 1 h to determine the MDA content and total superoxide dismutase (SOD) activities. Cells were lysed and centrifuged. […] MDA quantification and total SOD activities were determined using MDA and SOD enzyme activity assay kits (Nanjing Jiancheng Bioengineering Institute, Nanjing, China) following the manufacturer’s instructions.

[2] = test system: T1, AMPK α subunit ASP166 mutated into ALA166; assay: SPR analysis, AMPK α subunit D166 replaced with A166; assay type: binding
T1 construct: His (N); made in house
Description: Mammalian AMPK subunits (His-α1, β1, and γ1) were cloned into a pET-3d vector, and protein expression and purification were similar to the literature.
SPR analysis was performed with a Biacore T200 instrument (GE Healthcare). Firstly, the purred His-tagged AMPK containing α1β1γ1 protein was captured onto an activated carboxymethylated 5 (CM5) chip using amine coupling to levels ranging from 4000 RU to 6000 RU. Secondly, GENI was dissolved in PBS-P buffer solution (0.05% (v/v) Tween 20 and PBS), and the concentration of GENI was 64 μM. Thirdly, the solution of GENI was diluted to 32 μM, 16 μM, 8 μM, 4 μM, 2 μM, 1 μM and 0.5 μM with PBS-P buffer solution. The sample was filtered by pumping through a […] membrane. A gradient concentration of GENI was injected at a flow rate of 30 μL/min in a running buffer (0.05% (v/v) Tween 20 and PBS). The data were analyzed with Biacore evaluation software (T200 version 2.0) and fitted to the 1:1 Langmuir binding model, and the kinetic parameters were derived.
The non-covalent interaction between drugs and proteins is an important way to exert drug efficacy, and its mode of action and binding affinity usually determine the utilization and biological activity of drugs. AMPK is a heterotrimer complex consisting of an α subunit containing the kinase domain and two regulatory subunits (β- and γ-). […]

[3] = test system: D-gal-induced AD mice; assay: Immunohistochemistry of brain in D-gal-induced AD mice; assay type: in vivo; conditions: compared with the D-gal group
Description: Each group comprised 10 mice. […] Dosing lasted for 10 weeks. […] The mice were sacrificed after 10 weeks of administration.
Firstly, the three mice of each group were subjected to heart perfusion at the end of the animal experiment, and the whole brain was removed and placed in 15 mL of 4% paraformaldehyde and stored at 4 °C for 24 h. Secondly, we changed 4% paraformaldehyde into 15% sucrose solution and stored the solution at 4 °C for 24 h. We then changed the solution to 30% sucrose solution to dehydrate for 2 days. Thirdly, the mouse brain tissue was embedded in a cryo-embedding medium, and about 80 slices with a thickness of 20 μm were cut in the hippocampus using a cryostat (Thermal Fisher, Shanghai, China). The sections of mice in each group were immunohistochemically stained with primary antibodies, such as neuronal nuclear anti gen (NeuN), ionized calcium-binding adapter molecule 1 (Iba-1), inducible nitric oxide synthase (iNOS, pro-inflammatory factors), synaptophysin (Syp), and glial fibrillary acidic protein (GFAP), and secondary antibody. The product number and usage ratios of primary and secondary antibodies are detailed in Supplementary Table S4. Finally, the sections were observed under an upright two-photon confocal microscope (Olympus BX61, Tokyo, Japan) and recorded by a camera. The pictures were digitized with ImageJ software V1.8.0.112 (National Institutes of Health, Bethesda, MD, USA).

[4] = DON 3 mg/kg, GENI 12.5, 25, 50 mg/kg groups

Question: Which “H2O2-induced increase in ROS” value [1] does the source give for `CC(C)CCOC(=O)C1=CO[C@@H](O[C@@H]2O[C@H](CO)[C@@H](O)[C@H](O)[C@H]2O)C2C(CO)=CCC12` (stereo partly shown) [GENI, Geniposidic 4-isoamyl ester] here?
Answer: significantly reduce

Question: What about the “dose-dependent response in SPR” value [2] of the same compound?
Answer: No significant dose-dependent response

Question: What about the “activation of astrocytes (GFAP) in the cerebral cortex” value [3] of the same compound?
Answer: decreased

Question: And the “activation of microglia (Iba-1) in the cerebral cortex” value [3]?
Answer: decreased

Question: And the “expression of iNOS in the cerebral cortex” value [3]?
Answer: decreased

Question: And the “Syp intensity in the cerebral cortex” value [3, 4]?
Answer: significantly increased

Question: And the “mature neurons (NeuN) in the cerebral cortex and hippocampus” value [3, 4]?
Answer: significantly increased
